Results as given in US20180006232A1, “HETEROCYCLIC COMPOUND, LIGHT-EMITTING ELEMENT, LIGHT-EMITTING DEVICE, ELECTRONIC APPLIANCE, AND LIGHTING DEVICE” (Semiconductor Energy Laboratory Co., Ltd., priority 2014, published 2018).
Where two headings read alike, the source gives them in different places.

Test: Examination of solubility in organic solvents
Type: physicochemical
Details: for solubility: organic solvent or mixture, thermodynamic from solid
Excerpt: The heterocyclic compound which is one embodiment of the present invention and used in this example was 2mFBPDBq (sample 1). Note that 2mFBPDBq was synthesized by the synthesis method described in Example 1. In addition, the compound used for comparison was 2mDBTBPDBq-II (comparison sample 2). The purity of each compound was 99.9%. The structural formulae of the compounds are shown below.
The solvents used in this example were the four kinds of solvents: toluene, chloroform, ethyl acetate, and acetone.
A method of examining the solubility of the compound of each sample is described. First, 10 mg of the compound was put into a small bottle and to this was added 1 mL of a solvent. Then, whether the compound was dissolved at room temperature or not was checked. When the compound was not dissolved at room temperature, ultrasonic wave irradiation and then heating using a dryer were performed, so that whether the compound was dissolved was checked.
When the compound was not dissolved after heating, the volume of the solvent was increased to 10 mL, so that whether the compound was dissolved at room temperature was checked. When the compound was not dissolved at room temperature, ultrasonic wave irradiation and then heating using a dryer were performed, so that whether the compound was dissolved was checked.

| Structure (SMILES) | solubility | Solubility in Acetone (acetone, 10 mg compound in 1 mL, then 10 mL, room temperature, then ultrasonic wave irradiation and heating) | Solubility in Chloroform (chloroform, 10 mg compound in 1 mL, then 10 mL, room temperature, then ultrasonic wave irradiation and heating) | Solubility in Ethyl acetate (ethyl acetate, 10 mg compound in 1 mL, then 10 mL, room temperature, then ultrasonic wave irradiation and heating) | solubility (toluene, 10 mg compound in 1 mL, then 10 mL, room temperature, then ultrasonic wave irradiation and heating, read-out: Solubility in Toluene) | Solubility compared with comparison compound 2mDBTBPDBq-II (organic solvents (toluene, chloroform, ethyl acetate, acetone), summary in words) |
| --- | --- | --- | --- | --- | --- | --- |
| c1cc(-c2cccc(-c3cccc4c3sc3ccccc34)c2)cc(-c2cnc3c4ccccc4c4ccccc4c3n2)c1 [2mDBTBPDBq-II, 2-[3′-(dibenzothiophen-4-yl)biphenyl-3-yl]dibenzo[f,h]quinoxaline, reference compound] | < 1000 µg/mL |  |  |  |  |  |
| CC1(C)c2ccccc2-c2ccc(-c3cccc(-c4cccc(-c5cnc6c7ccccc7c7ccccc7c6n5)c4)c3)cc21 [2mFBPDBq, 2-{3-[3-(9,9-dimethylfluoren-2-yl)phenyl]phenyl}dibenzo[f,h]quinoxaline] |  | □ (dissolved at 10 mg/10 mL when heated) | ◯ (dissolved at 10 mg/mL when heated) | □ (dissolved at 10 mg/10 mL when heated) | > 10000 µg/mL | higher solubility |
